Source: PMC6372667 (Experimental & Molecular Medicine, 2019)
Read-outs that look alike come from different tables or passages of the source.

Columns and labels:
[1] = test system: C6 rat glial cells; experiment: MTT cytotoxicity assay, C6; type: cell-based; settings: 24 h
Experimental: (§1) Cytotoxicity was assessed using the MTT assay. Briefly, the cells were seeded into a 96-well plate at a density of 1×10^5 cells per well in 100 µL of corresponding media and incubated at 37 °C in an incubator under 5% CO2 tension for 24 h. The culture media were then replaced with 100 µL of fresh serum-free media in the presence of varied concentrations of pterosin derivatives, and cells were incubated for an additional 24 h. The control was treated with an equal amount of DMSO present in the assay for a 5 mM concentration. Then, 100 µL of MTT solution (0.5 mg/mL in Phosphate Buffered Saline (PBS)) was added to each culture. To measure the proportion of surviving cells, the media were replaced with 100 µL of DMSO 2 h after the administration of MTT solution. The absorbance was measured at 570 nm using a spectrophotometric plate reader (Molecular Devices, Sunnyvale, CA, USA).

[2] = test system: B16F10 mouse melanoma; experiment: MTT cytotoxicity assay, B16F10; type: cell-based; settings: 24 h
Experimental: as §1

[3] = target: T1, horse serum BChE (Equus caballus, UniProt P81908); experiment: Kinetic analysis of BChE inhibition (Dixon and Lineweaver−Burk plots); type: biochemical
T1 construct: horse serum BChE (EC 3.1.1.8); purchased Sigma-Aldrich Co; host or cells: horse serum
T1 sequence (P81908 whole entry): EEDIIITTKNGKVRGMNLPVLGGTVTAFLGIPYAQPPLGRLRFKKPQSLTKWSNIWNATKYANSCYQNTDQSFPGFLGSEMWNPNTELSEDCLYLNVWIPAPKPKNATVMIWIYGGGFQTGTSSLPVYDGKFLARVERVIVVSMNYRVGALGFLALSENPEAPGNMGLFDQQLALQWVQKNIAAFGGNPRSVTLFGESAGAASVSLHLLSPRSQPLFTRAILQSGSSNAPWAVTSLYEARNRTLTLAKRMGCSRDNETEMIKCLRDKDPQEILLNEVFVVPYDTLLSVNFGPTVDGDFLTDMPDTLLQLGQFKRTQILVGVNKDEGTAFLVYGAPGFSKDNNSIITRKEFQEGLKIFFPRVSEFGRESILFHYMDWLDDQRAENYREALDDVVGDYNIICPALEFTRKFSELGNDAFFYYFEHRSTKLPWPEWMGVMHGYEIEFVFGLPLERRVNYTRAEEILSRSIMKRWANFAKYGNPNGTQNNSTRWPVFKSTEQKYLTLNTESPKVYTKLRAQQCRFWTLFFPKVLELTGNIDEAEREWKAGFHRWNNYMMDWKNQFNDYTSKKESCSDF
Experimental: (§2) The Ki was determined by interpretation of the Dixon plot, with the value of the x-axis intercept taken as −Ki.
Dixon plots for BChE inhibition by pterosin derivatives. (2S,3R)-Pterosin C (A), (2R,3R)-pterosin C (B), and (2R)-pterosin B (C) were tested in the presence of substrate concentrations of 0.2 mM (●), 0.4 mM (○), and 0.8 mM (▼).
Dixon plots for BChE inhibition by pteroside derivatives. (2R)-pteroside B (A), (2R,3R)-pteroside C (B), and (3S)-pteroside D (C) were tested in the presence of substrate concentrations of 0.2 mM (●), 0.4 mM (○), and 0.8 mM (▼). Lineweaver-Burk plots for BChE inhibition were generated with inhibitor concentrations of 0 µM (Δ), 4 µM (▼), 20 µM (○), and 100 µM (●) for (2R)-pteroside B (D); 0 µM (Δ), 0.8 µM (▼), 4 µM (○), and 20 µM (●) for (2R,3R)-pteroside C (E) and (3S)-pteroside D (F).

[4] = target: T2, BACE1 (human recombinant β-secretase) (Homo sapiens, UniProt P56817); experiment: In vitro BACE1 FRET enzyme assay; type: biochemical
T2 sequence (P56817 46-501): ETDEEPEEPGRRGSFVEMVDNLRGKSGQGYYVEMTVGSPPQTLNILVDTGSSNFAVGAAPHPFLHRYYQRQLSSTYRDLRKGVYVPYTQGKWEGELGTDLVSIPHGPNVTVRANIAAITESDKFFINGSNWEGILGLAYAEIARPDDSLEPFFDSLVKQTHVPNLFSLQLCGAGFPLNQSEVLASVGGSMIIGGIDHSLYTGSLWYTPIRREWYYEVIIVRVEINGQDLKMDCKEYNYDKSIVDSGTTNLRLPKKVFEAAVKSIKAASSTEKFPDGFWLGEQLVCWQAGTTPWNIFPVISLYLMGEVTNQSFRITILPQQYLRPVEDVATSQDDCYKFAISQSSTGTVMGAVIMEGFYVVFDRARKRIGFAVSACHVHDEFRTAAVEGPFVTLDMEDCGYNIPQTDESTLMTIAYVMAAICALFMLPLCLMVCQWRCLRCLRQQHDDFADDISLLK
From the text: (§3) BACE1 (human recombinant β-secretase) ([…]) and the BACE1 FRET (fluorescence resonance energy transfer) assay kit Red were purchased from ThermoFisher Scientific (P2985; Waltham, MA, USA). […] For the cell culture experiment, Dulbecco’s modified Eagle’s medium (DMEM), Opti-MEM, fetal bovine serum (FBS), and penicillin/streptomycin were obtained from Capricorn Scientific (Ebsdorfergrund, Germany). β-secretase inhibitor III (β-SI) was purchased from Calbiochem (Darmstadt, Germany). The protease inhibitor mixture (a mixture of AEBSF, pepstatin A, E-64, bestain, leupeptin, and aprotinin) was purchased from Sigma-Aldrich (St. Louis, MO, USA). Enzyme-linked immunosorbent assay (ELISA) kits for Aβ40 and Aβ42 were obtained from IBL (Kunma, Japan). All chemicals and solvents used were reagent grade, purchased from commercial sources, and used as received.
The BACE1 FRET assay was carried out according to the manufacturer’s instructions with slight modifications as previously described. The assay was performed in a […] black plate using a multi-pipette.

[5] = in vitro; type: in vitro ADME; settings: for Papp at 4 h, 25 µg/mL: pig, PAMPA, read-out: PAMPA-BBB permeability Pe
Experimental: PAMPA (parallel artificial membrane permeation assay) was used as a high-throughput assay to predict BBB permeation. Porcine polar brain lipid (PBL) was used as an artificial membrane to predict BBB permeation. Initially, the test compound was dissolved in DMSO at 5 mg/mL. This compound stock solution (10 µL) was diluted 200-fold in a universal buffer at pH 7.4 and mixed with a multi 8-channel pipette to obtain the secondary stock solution (final concentration 25 µg/mL). The secondary stock solution (200 µL) was placed in the donor wells. The filter membrane was coated with PBL in dodecane (4 mL volume of 20 mg/mL PBL in dodecane), and 5 µL of BBB-1 lipid solution was spread on PBL by pipette. The acceptor well was filled with […] of Acceptor Sink Buffer. The acceptor filter plate was cautiously positioned on the donor plate to assemble a “sandwich” (comprising an aqueous acceptor, artificial lipid membrane and aqueous donor with test compound on the top, middle and bottom, respectively). The test compound diffuses from the donor well to the acceptor well through the lipid membrane. After 4 h of incubation at pH 7.4 and 25 °C, the concentration of the compound in the acceptor, donor, reference and blank wells was estimated with a UV plate reader, Epoch Microplate Spectrophotometer (BioTek Instruments, Inc., Winooski, VT, USA). […] Samples were analyzed in quadruplets, and the average of the four runs was reported. To monitor the consistency of the analysis set, quality control standards were run with each sample set.
PAMPA-BBB, an in vitro artificial membrane permeability assay for the BBB, is one of the most reliable physicochemical screening tools in the early stage discovery of CNS-targeted drugs. The PAMPA-BBB system models the transcellular passive diffusion of chemicals across the BBB and measures strictly passive transport mechanisms via an artificial lipid membrane on effective permeability (Pe, cm/s).

[6] = test system: SH-SY5Y human neuroblastoma; experiment: MTT cytotoxicity assay, SH-SY5Y; type: cell-based; settings: 24 h
Experimental: as §1

[7] = target: T3, Electric eel AChE (Electrophorus electricus, UniProt O42275); experiment: Kinetic analysis of AChE inhibition (Dixon and Lineweaver−Burk plots); type: biochemical
T3 construct: purchased Sigma-Aldrich Co
T3 sequence (O42275 24-633): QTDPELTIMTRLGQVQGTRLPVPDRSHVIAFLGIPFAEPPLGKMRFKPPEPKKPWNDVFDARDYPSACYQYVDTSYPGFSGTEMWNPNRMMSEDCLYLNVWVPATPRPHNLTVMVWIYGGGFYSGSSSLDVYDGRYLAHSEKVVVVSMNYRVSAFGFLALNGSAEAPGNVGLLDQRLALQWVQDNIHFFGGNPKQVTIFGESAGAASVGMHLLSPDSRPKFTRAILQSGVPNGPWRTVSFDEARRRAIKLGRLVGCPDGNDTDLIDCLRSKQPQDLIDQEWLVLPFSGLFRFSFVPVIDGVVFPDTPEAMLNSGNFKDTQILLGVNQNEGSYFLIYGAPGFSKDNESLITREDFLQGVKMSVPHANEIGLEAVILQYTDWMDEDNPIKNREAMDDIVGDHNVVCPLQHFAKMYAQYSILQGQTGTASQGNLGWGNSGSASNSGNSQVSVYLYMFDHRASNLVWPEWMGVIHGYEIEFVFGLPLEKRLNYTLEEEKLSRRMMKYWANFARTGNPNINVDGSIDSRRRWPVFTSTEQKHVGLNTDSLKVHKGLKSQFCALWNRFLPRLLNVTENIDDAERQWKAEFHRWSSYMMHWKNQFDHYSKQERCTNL
Experimental: as §2
Dixon plots for AChE inhibition by pterosin derivatives. (2S,3R)-Pterosin C (A), (2R,3R)-pterosin C (B), and (2R)-pterosin B (C) were tested in the presence of substrate concentrations of 0.1 mM (●), 0.3 mM (○), and 0.6 mM (▼). Lineweaver-Burk plots for AChE inhibition were generated with inhibitor concentrations of 0 µM (Δ), 4 µM (▼), 20 µM (○), and 100 µM (●) for (2S,3R)-pterosin C (D) and (2R,3R)-pterosin C (E); and 0 µM (Δ), 2 µM (▼), 10 µM (○), and 50 µM (●) for (2R)-pterosin B (F).
Dixon plots for AChE inhibition by pteroside derivatives. (2R)-pteroside B (A), (2R,3R)-pteroside C (B), and (3S)-pteroside D (C) were tested in the presence of substrate concentrations of 0.1 mM (●), 0.3 mM (○), and 0.6 mM (▼). Lineweaver-Burk plots for AChE inhibition were generated with inhibitor concentrations of 0 µM (Δ), 0.8 µM (▼), 4 µM (○), and 20 µM (●) for (2R)-pteroside B (D), (2R,3R)-pteroside C (E), and (3S)-pteroside D (F).

[8] = target: T1, horse serum BChE; experiment: In vitro cholinesterase enzyme assay (Ellman), BChE; type: biochemical
From the text: as §3
(§4) The inhibitory activities of pterosin derivatives against cholinesterases were measured using the method developed by Ellman et al.[32]. The reaction mixture contained 140 μL of sodium phosphate buffer (pH 8.0), 20 μL of test sample solution (final concentration of the compound 100 μM), and 20 μL of AChE or BChE solution, mixed and incubated for 15 min at room temperature. […] The reactions were initiated following the addition of 10 μL of DTNB and 10 μL of acetyl thiocholine iodide for the AChE assay or butyryl thiocholine chloride for the BChE assay in 96-well microplates, which were incubated for 15 min.

[9] = target: T3, Electric eel AChE; experiment: In vitro cholinesterase enzyme assay (Ellman), AChE; type: biochemical
From the text: as §3, §4

[10] = test system: NIH3T3 mouse embryo fibroblasts; experiment: MTT cytotoxicity assay, NIH3T3; type: cell-based; settings: 24 h
Experimental: as §1

[11] = target: T2, BACE1 (human recombinant β-secretase); experiment: Kinetic analysis of BACE1 inhibition (Dixon and Lineweaver−Burk plots); type: biochemical
Experimental: as §2
Dixon plots for BACE1 inhibition by pterosin derivatives.
Dixon plots for BACE1 inhibition by pteroside derivatives.

[12] = Dixon and Lineweaver−Burk plots
[13] = mean ± S.D. of three experiments
[14] = mean ± S.D. of three experiments, read-out: IC50 BChE
[15] = mean ± S.D. of three experiments, read-out: IC50 AChE
[16] = 4 h, pH 7.4, 25 °C, mean ± SD of quadruple experiments

| SMILES | LD50 Based on MTT Assay, C6 [1] | LD50 Based on MTT Assay, B16F10 [2] | LD50 Based on MTT Assay, SY-SY5Y [6] | LD50 Based on MTT Assay, NIH3T3 [10] | IC50 [4, 13] | IC50 [8, 14] | IC50 [9, 15] | Papp at 4 h, 25 µg/mL [5, 16] | further results |
| --- | --- | --- | --- | --- | --- | --- | --- | --- | --- |
| Cc1cc2c(c(C)c1CCO)C(=O)[C@H](C)[C@H]2O [(2R,3R)-Pterosin C, (2R,3R)-pterosin C] | 694 ± 9.7 µM | >5,000 µM | 719 ± 25 µM | >5,000 µM | – | – | – | – | Ki [3]: 4.77 µM; Inhibition type BChE [3, 12]: Mixed-type; IC50 [4]: 26.2 ± 6.3 µM; log Pe [5]: -5.70; Papp at 4 h, 25 µg/mL ([5]; pH 7.4): 1.98 ± 0.17 ×10⁻⁶ cm/s; Ki [7]: 29.6 µM; Inhibition type AChE [7, 12]: Noncompetitive; IC50 [8]: 20.3 ± 0.88 µM; IC50 [9]: 23.2 ± 4.6 µM; Ki [11]: 27.6 µM; Inhibition type BACE1 [11, 12]: Mixed-type |
| Cc1c(CCO[C@@H]2O[C@H](CO)[C@@H](O)[C@H](O)[C@H]2O)c(CO)cc2c1C(=O)[C@@H](C)C2 [(2S)-Pteroside P, (2S)-pteroside P] | >5,000 µM | >5,000 µM | 1,090 ± 99 µM | >5,000 µM | > 125 µM | 33.2 ± 3 µM | 57.5 ± 3.2 µM | – | IC50 BACE1 [4, 13]: inactive at the concentrations tested |
| Cc1cc2c(c(C)c1CCO)C(=O)[C@](C)(CO)C2 [(2S)-Pterosin A, (2S)-pterosin A] | >5,000 µM | 522 ± 25 µM | 1,210 ± 110 µM | >5,000 µM | > 125 µM | 67.3 ± 3.3 µM | 56.7 ± 2.6 µM | 6.26 ± 0.24 ×10⁻⁶ cm/s | IC50 BACE1 [4, 13]: inactive at the concentrations tested; log Pe ([5]; PAMPA-BBB): -5.20; BBB permeation class ([5]; PAMPA-BBB, classified by Pe, given in words): high BBB permeation |
| Cc1cc2c(c(C)c1CCO[C@@H]1O[C@H](CO)[C@@H](O)[C@H](O)[C@H]1O)C(=O)C(C)(C)C2 [Pteroside Z, pteroside Z] | 2,130 ± 62 µM | >5,000 µM | 1,430 ± 210 µM | >5,000 µM | 53.3 ± 1.2 µM | 5.31 ± 0.19 µM | 24.1 ± 1.1 µM | 0.61 ± 0.17 ×10⁻⁶ cm/s | – |
| Cc1cc2c(c(C)c1CCO)C(=O)C(C)(COC1OC(CO)C(O)C(O)C1O)C2 [(2S)-Pteroside A2, (2S)-pteroside A2] | >5,000 µM | >5,000 µM | 1,010 ± 60 µM | >5,000 µM | 94.4 ± 4.5 µM | 119 ± 2.5 µM | 39.3 ± 1.9 µM | 0.54 ± 0.51 ×10⁻⁶ cm/s | – |
| Cc1cc2c(c(C)c1CCO[C@@H]1O[C@H](CO)[C@@H](O)[C@H](O)[C@H]1O)C(=O)[C@@H](C)[C@H]2O [(2S,3R)-Pteroside C, (2S,3R)-pteroside C] | >5,000 µM | >5,000 µM | 711 ± 35 µM | >5,000 µM | 28.9 ± 2.2 µM | 13 ± 0.14 µM | 9.17 ± 0.82 µM | 0.29 ± 0.34 ×10⁻⁶ cm/s | – |
| Cc1cc2c(c(C)c1CCO)C(=O)C(C)(C)C2 [Pterosin Z, pterosin Z] | 1,850 ± 65 µM | 618 ± 71 µM | 495 ± 24 µM | 553 ± 37 µM | 80 ± 5.9 µM | – | – | – | IC50 [8]: 80.1 ± 6.8 µM; IC50 [9]: 46.5 ± 3.4 µM |
